For this assay, the system named is compound-treated mice. The assay can be described thus: Neuropharmacological assay (SmartCube): behavioral activity signature and minimal effective dose. The format is in vivo. To be noted: for minimal effective dose: Mus musculus, ip, MED = dose having 50% or more total activity, read-out: Potency: minimal effective dose (MED), binned; for AD: ADHD (probability of activity signature) / AG: analgesic (probability of activity signature) / AX: anxiolytic (probability of activity signature) / CE: cognitive enhancer (probability of activity signature) / DP: anti-depressant (probability of activity signature) / MS: mood stabilizer (probability of activity signature) / PS: anti-psychotic (probability of activity signature) / SD: sedative hypnotic (probability of activity signature) / UN: uncharacterized CNS activity (probability of activity signature): i.p. 15 min before test, most efficacious dose(s). From the text:
Neurosci. 2011 Sep. 9; 5:103 (doi: 10.3389/fnins.2011.00103) (“Roberds”). As reported in Roberds, because psychiatric diseases generally result from disorders of cell-cell communication or circuitry, intact systems are useful in detecting improvement in disease-relevant endpoints. These endpoints are typically behavioral in nature, often requiring human observation and interpretation. To facilitate testing of multiple compounds for behavioral effects relevant to psychiatric disease, PsychoGenics, Inc. (Tarrytown, N.Y., “PGI”) developed SmartCube™, an automated system in which behaviors of compound-treated mice are captured by digital video and analyzed with computer algorithms. (D. Brunner et al., Drug Discov. Today 2002, 7:S107-S112). PGI Analytical Systems uses data from SmartCube™ to compare the behavioral signature of a test compound to a database of behavioral signatures obtained using a large set of diverse reference compounds. (The composition of the database as well as validation of the method is further described in Roberds). In this way, the neuropharmacological effects of a test compound can be predicted by similarity to major classes of compounds, such as antipsychotics, anxiolytics and antidepressants.
The SmartCube™ system produces an activity signature indicating the probability that the activity of the test compound at the administered dose matches a given class of neuropharmacological agents. (See, e.g., Roberds, FIGS. 2 and 3). The test compound is simultaneously compared against multiple classes of agents; thus, a separate probability is generated for each behavioral effect measured (e.g., anxiolytic activity, analgesic activity, etc.). In the table below, these probabilities are reported for each behavioral effect measured as follows:
where LOQ is the limit of quantification.
Provided compounds were dissolved in a mixture of Pharmasolve™ (N-methyl-2-pyrrolidone), polyethylene glycol and propylene glycol, and were injected i.p. 15 min. before the behavioral test. For each compound, injections were administered at 3 different doses. For each behavioral effect measured, results for the most efficacious dose(s) are presented. In the table below, DP: anti-depressant; AX: anxiolytic; SD: sedative hypnotic; PS: anti-psychotic; MS: mood stabilizer; AD: ADHD; CE: cognitive enhancer; AG: analgesic; UN: uncharacterized CNS activity.
The potency of many of the compounds in the table was also determined in the SmartCube™ system. Test compounds were routinely examined at dose levels of 0.3, 1, 3, 10 and 30 mg per kg (mpk), although the dose range was increased or decreased if necessary to obtain a full dose response curve. A compound's minimal effective dose (MED) is a measure of the compounds potency. The MED was defined as the dose (in mpk) having 50% or more total activity in SmartCube.

Here are results for ten compounds from patent US11077090B2, “Compounds and compositions and uses thereof” (Sunovion Pharmaceuticals Inc., priority 2016, dated 2021).

SMILES strings stand for the structures.

Consider `COc1ccc2c(c1)[C@H](N)[C@@H](C)OC2` (single isomer, unassigned) [Example 171], for which the minimal effective dose was < 3 mg/kg, the “AD: ADHD (probability of activity signature)” value (from here on “AD: ADHD”) is recorded as “+ (LOQ ≤ + <5%)”, the “AG: analgesic (probability of activity signature)” value (from here on “AG: analgesic”) is given as “++ (5% ≤ ++ <25%)” and the “AX: anxiolytic (probability of activity signature)” value (shortened to “AX: anxiolytic”) was “+++ (25% ≤ +++ <50%)”. Also, the “CE: cognitive enhancer (probability of activity signature)” value (“CE: cognitive enhancer” for short) is “++ (5% ≤ ++ <25%)”, the “DP: anti-depressant (probability of activity signature)” value (“DP: anti-depressant” below) is “++ (5% ≤ ++ <25%)”, the “MS: mood stabilizer (probability of activity signature)” value (“MS: mood stabilizer” below) is “+ (LOQ ≤ + <5%)” and the “PS: anti-psychotic (probability of activity signature)” value (“PS: anti-psychotic” below) is “++ (5% ≤ ++ <25%)”. In addition, the “SD: sedative hypnotic (probability of activity signature)” value (shortened to “SD: sedative hypnotic”) is recorded as “++ (5% ≤ ++ <25%)” and the “UN: uncharacterized CNS activity (probability of activity signature)” value (“UN: uncharacterized CNS activity” below) is given as “+++ (25% ≤ +++ <50%)”.
Turning to `COc1ccc2c(c1)[C@@H](N)[C@H](C)OC2` (single isomer, unassigned) [Example 172], the minimal effective dose is 10 to 30 mg/kg, the “AD: ADHD” value is recorded as “+ (LOQ ≤ + <5%)”, the “AG: analgesic” value was “++ (5% ≤ ++ <25%)” and the “AX: anxiolytic” value is given as “++ (5% ≤ ++ <25%)”. Also, the “CE: cognitive enhancer” value was “+ (LOQ ≤ + <5%)”, the “DP: anti-depressant” value was “+ (LOQ ≤ + <5%)”, the “MS: mood stabilizer” value is “+ (LOQ ≤ + <5%)” and the “PS: anti-psychotic” value was “++ (5% ≤ ++ <25%)”. Besides, the “SD: sedative hypnotic” value is listed as “+ (LOQ ≤ + <5%)” and the “UN: uncharacterized CNS activity” value was “+++ (25% ≤ +++ <50%)”.
In the case of `COc1ccc2c(c1)[C@H](N)[C@H](C)OC2` (single isomer, unassigned) [Example 173], the minimal effective dose was 3 to 10 mg/kg, the “AD: ADHD” value is “+ (LOQ ≤ + <5%)”, the “AG: analgesic” value is “++ (5% ≤ ++ <25%)” and the “AX: anxiolytic” value was “++ (5% ≤ ++ <25%)”. Moreover, the “CE: cognitive enhancer” value is given as “++ (5% ≤ ++ <25%)”, the “DP: anti-depressant” value was “+ (LOQ ≤ + <5%)”, the “MS: mood stabilizer” value is listed as “+ (LOQ ≤ + <5%)” and the “PS: anti-psychotic” value was “+ (LOQ ≤ + <5%)”. Moreover, the “SD: sedative hypnotic” value is given as “+ (LOQ ≤ + <5%)” and the “UN: uncharacterized CNS activity” value is “++++ (50% ≤ ++++)”.
As to `COc1ccc2c(c1)[C@@H](N)[C@@H](C)OC2` (single isomer, unassigned) [Example 174], the minimal effective dose lay in the range of 3 to 10 mg/kg, the “AD: ADHD” value is recorded as “+ (LOQ ≤ + <5%)”, the “AG: analgesic” value is given as “++ (5% ≤ ++ <25%)” and the “AX: anxiolytic” value is given as “++ (5% ≤ ++ <25%)”. Also, the “CE: cognitive enhancer” value is “++ (5% ≤ ++ <25%)”, the “DP: anti-depressant” value is “++ (5% ≤ ++ <25%)”, the “MS: mood stabilizer” value is “+ (LOQ ≤ + <5%)” and the “PS: anti-psychotic” value is “++ (5% ≤ ++ <25%)”. Besides, the “SD: sedative hypnotic” value is recorded as “+ (LOQ ≤ + <5%)” and the “UN: uncharacterized CNS activity” value was “++++ (50% ≤ ++++)”.
For `Cc1ccc(Cl)c2c1[C@H](N)COC2` (single isomer, unassigned) [Example 175], the minimal effective dose was < 3 mg/kg, the “AD: ADHD” value is reported as “+ (LOQ ≤ + <5%)”, the “AG: analgesic” value was “++ (5% ≤ ++ <25%)” and the “AX: anxiolytic” value is given as “++ (5% ≤ ++ <25%)”. Further, the “CE: cognitive enhancer” value is “++ (5% ≤ ++ <25%)”, the “DP: anti-depressant” value is listed as “++ (5% ≤ ++ <25%)”, the “MS: mood stabilizer” value is given as “+ (LOQ ≤ + <5%)” and the “PS: anti-psychotic” value is “++ (5% ≤ ++ <25%)”. Also, the “SD: sedative hypnotic” value is reported as “+ (LOQ ≤ + <5%)” and the “UN: uncharacterized CNS activity” value is given as “++++ (50% ≤ ++++)”.
As to `Cc1ccc(Cl)c2c1[C@@H](N)COC2` (single isomer, unassigned) [Example 176], the minimal effective dose was 3 to 10 mg/kg, the “AD: ADHD” value is listed as “+ (LOQ ≤ + <5%)”, the “AG: analgesic” value is “+ (LOQ ≤ + <5%)” and the “AX: anxiolytic” value is given as “++ (5% ≤ ++ <25%)”. Moreover, the “CE: cognitive enhancer” value is on record as “++ (5% ≤ ++ <25%)”, the “DP: anti-depressant” value was “++ (5% ≤ ++ <25%)”, the “MS: mood stabilizer” value is given as “+ (LOQ ≤ + <5%)” and the “PS: anti-psychotic” value is given as “++ (5% ≤ ++ <25%)”. In addition, the “SD: sedative hypnotic” value is on record as “+ (LOQ ≤ + <5%)” and the “UN: uncharacterized CNS activity” value is listed as “++++ (50% ≤ ++++)”.
`CC[C@H]1OCc2ccc(C)cc2[C@@H]1N` (single isomer, unassigned) [Example 177]: the minimal effective dose was < 3 mg/kg, the “AD: ADHD” value was “+ (LOQ ≤ + <5%)”, the “AG: analgesic” value is recorded as “++ (5% ≤ ++ <25%)” and the “AX: anxiolytic” value is on record as “++++ (50% ≤ ++++)”. For the same compound, the “CE: cognitive enhancer” value was “++ (5% ≤ ++ <25%)”, the “DP: anti-depressant” value was “+ (LOQ ≤ + <5%)”, the “MS: mood stabilizer” value is on record as “+ (LOQ ≤ + <5%)” and the “PS: anti-psychotic” value is “++ (5% ≤ ++ <25%)”. Further, the “SD: sedative hypnotic” value is reported as “+ (LOQ ≤ + <5%)” and the “UN: uncharacterized CNS activity” value is on record as “++++ (50% ≤ ++++)”.
As to `CC[C@@H]1OCc2ccc(C)cc2[C@H]1N` (single isomer, unassigned) [Example 178], the minimal effective dose fell in the range of 10 to 30 mg/kg, the “AD: ADHD” value is “+ (LOQ ≤ + <5%)”, the “AG: analgesic” value is on record as “++ (5% ≤ ++ <25%)” and the “AX: anxiolytic” value is listed as “++ (5% ≤ ++ <25%)”. Further, the “CE: cognitive enhancer” value was “+ (LOQ ≤ + <5%)”, the “DP: anti-depressant” value is on record as “++ (5% ≤ ++ <25%)”, the “MS: mood stabilizer” value is “+ (LOQ ≤ + <5%)” and the “PS: anti-psychotic” value is listed as “++ (5% ≤ ++ <25%)”. The “SD: sedative hypnotic” value is “++ (5% ≤ ++ <25%)” and the “UN: uncharacterized CNS activity” value is “+++ (25% ≤ +++ <50%)”.
Consider `CC[C@@H]1OCc2ccc(C)cc2[C@@H]1N` (single isomer, unassigned) [Example 179], for which the minimal effective dose is < 3 mg/kg, the “AD: ADHD” value is “+ (LOQ ≤ + <5%)”, the “AG: analgesic” value is “+ (LOQ ≤ + <5%)” and the “AX: anxiolytic” value is given as “++ (5% ≤ ++ <25%)”. For the same compound, the “CE: cognitive enhancer” value is “++ (5% ≤ ++ <25%)”, the “DP: anti-depressant” value is given as “+++ (25% ≤ +++ <50%)”, the “MS: mood stabilizer” value was “+ (LOQ ≤ + <5%)” and the “PS: anti-psychotic” value is listed as “++ (5% ≤ ++ <25%)”. Further, the “SD: sedative hypnotic” value is on record as “+ (LOQ ≤ + <5%)” and the “UN: uncharacterized CNS activity” value is reported as “++++ (50% ≤ ++++)”.
On to `CC[C@H]1OCc2ccc(C)cc2[C@H]1N` (single isomer, unassigned) [Example 180], for which the minimal effective dose was in the range of 3 to 10 mg/kg, the “AD: ADHD” value is given as “+ (LOQ ≤ + <5%)”, the “AG: analgesic” value is reported as “++ (5% ≤ ++ <25%)” and the “AX: anxiolytic” value is “++ (5% ≤ ++ <25%)”. The “CE: cognitive enhancer” value is “++ (5% ≤ ++ <25%)”, the “DP: anti-depressant” value was “++ (5% ≤ ++ <25%)”, the “MS: mood stabilizer” value is “+ (LOQ ≤ + <5%)” and the “PS: anti-psychotic” value is recorded as “++ (5% ≤ ++ <25%)”. Moreover, the “SD: sedative hypnotic” value is “+ (LOQ ≤ + <5%)” and the “UN: uncharacterized CNS activity” value is given as “++++ (50% ≤ ++++)”.
